Data from article PMC10407255, “Comparison of activity, structure, and dynamics of SF-1 and LRH-1 complexed with small molecule modulators” (The Journal of Biological Chemistry, 2023).
Like-named read-outs stand apart in the source and are kept apart here.

Experiments:
[1] = molecular target: T1, SF-1 (Homo sapiens, UniProt Q13285); experiment: Luciferase reporter assay, SF-1, HeLa cells; type: cell-based; settings: for EC50: HeLa cells, ~24 h; for luciferase signal at highest concentration: cells treated with 3e-5 M, potentially indicating cell toxicity or compound insolubility, data excluded; for maximum activation: normalized relative to DMSO control; for SF-1 activation in luciferase reporter assay: small molecule at 0.1, 1, and 10 μM, relative to DMSO control
T1 construct: expressed in transfected cells; host or cells: HeLa
Protocol: (§1) Reporter assays were conducted as described previously ([47], [52], [53]). Briefly, HeLa cells were seeded at ∼7500 to 10,000 cells per well in 96-well plates (white-walled, clear bottom) in MEMα + 10% FBS – charcoal/dextran treated. Once cells reached 80 to 90% confluence, they were transfected with LRH-1 (in pCI vector, 5 ng/well) or SF-1 (in pcDNA vector, 5 ng/well), a reporter plasmid with an NR5A response element derived from the SHP promoter cloned upstream of Firefly Luciferase (in pGL3-Basic vector, 50 ng/well), and a plasmid expressing Renilla Luciferase constitutively from a CMV promoter (1 ng/well). Cells were transfected with FuGENE at a ratio of 3:1 (FuGENE:DNA). Twenty-four hours after transfection, compounds were diluted in Opti-MEM and introduced to cells at the final concentrations indicated in figures (final DMSO concentration was 0.37%). Luciferase signal was measured after ∼24 h using the DualGlo kit (Promega) with a BioTek Neo plate reader. Each experiment was conducted with three biological replicates, each with three technical replicates averaged prior to data analysis. Firefly Luciferase signal for each well was divided by the well’s Renilla Luciferase signal intensity and then normalized relative to the DMSO control. Data were analyzed with GraphPad Prism (version 9) using a stimulating dose–response curve (Hill slope = 1).

[2] = molecular target: T2, SF-1 LBD Y436F (Homo sapiens, UniProt Q13285, Y436F); experiment: FP assay (forward binding and competition), SF-1 Y436F; settings: for effect of pocket mouth mutation Y436 on binding affinity: compared to WT, FP competition
T2 construct: transformed with the SF-1 LBD (amino acids 218–461) in the pLIC-His vector; His (pLIC-His vector); made in house
Protocol: (§2) FP assays were performed as described previously ([38], [47], [53]). Briefly, experiments were conducted in black, polystyrene, non-binding surface 384-well plates (Corning Inc., Corning, NY) with 30 μl volumes in assay buffer (150 mM NaCl, 20 mM Tris-HCl, 5% glycerol, pH 7.4). […] Polarization was monitored on a Neo plate reader (Biotek, Winooski, VT) at an excitation/emission wavelength of 485/528 nm. Plates were incubated overnight at 4 °C and centrifuged at 2000g for 2 min before polarization measurement. Nine technical replicates were conducted over three experiments and compiled binding data were baseline-corrected to wells with no protein and fit with a one-site binding curve in GraphPad Prism version 7 (GraphPad, Inc, La Jolla, CA). 6N conjugated to fluorescein amidite (FAM) (10 nM/well – 0.8 times the affinity of SF-1 for 6N-FAM) was incubated with SF-1 LBD (25 nM/well – 60% of the forward binding Bmax). Unlabeled compounds were added at concentrations indicated in figures with DMSO in each well held constant at 6.7% v/v. Each experiment was performed two or three times with four technical replicates each. Technical replicates were averaged and normalized independently prior to final data analysis.
(§3) All mutations other than L265M were introduced using the QuikChange II Site-Directed Mutagenesis Kit (Agilent). The Q5 Site-Directed Mutagenesis Kit (New England Biolabs) was used to generate the L265M mutant. All constructs were sequenced prior to use.

[3] = molecular target: T3, SF-1 LBD M268L (Homo sapiens, UniProt Q13285, M268L); experiment: FP assay (forward binding and competition), SF-1 M268L; settings: for effect of deep pocket mutation on binding affinity: M268 mutant compared to WT, FP competition
T3 construct: transformed with the SF-1 LBD (amino acids 218–461) in the pLIC-His vector; His (pLIC-His vector); made in house
Protocol: as §2, §3

[4] = molecular target: T4, SF-1 LBD K440A (Homo sapiens, UniProt Q13285, K440A); experiment: FP assay (forward binding and competition), SF-1 K440A
T4 construct: transformed with the SF-1 LBD (amino acids 218–461) in the pLIC-His vector; His (pLIC-His vector); made in house
Protocol: as §2
All mutations other than L265M were introduced using the QuikChange II Site-Directed Mutagenesis Kit (Agilent). […]

[5] = molecular target: T5, SF-1 LBD T272V (Homo sapiens, UniProt Q13285, T272V); experiment: FP assay (forward binding and competition), SF-1 T272V; settings: for effect of deep pocket mutation on binding affinity: T272 mutant compared to WT, FP competition
T5 construct: transformed with the SF-1 LBD (amino acids 218–461) in the pLIC-His vector; His (pLIC-His vector); made in house
Protocol: as §2, §3

[6] = molecular target: T6, SF-1 LBD (Homo sapiens, UniProt Q13285); experiment: FP assay (6N-FAM forward binding and competition), wild-type SF-1; settings: for Ki: FP competition with 10 nM 6N-FAM, 25 nM SF-1 LBD, 95% confidence intervals in brackets, read-out: Ki (inhibition constant)
T6 construct: transformed with the SF-1 LBD (amino acids 218–461) in the pLIC-His vector; made in house; host or cells: E. coli BL21(DE3)-pLysS
Protocol: as §2

[7] = molecular target: T6, SF-1 LBD; experiment: Differential scanning fluorimetry (thermal shift assay); type: binding; settings: for Tm (melting temperature): SF-1 LBD pre-exchanged with DLPC, incubated with small molecule overnight; for positive shift in melting temperature: relative to the DLPC phospholipid control
Protocol: Purified SF-1 LBD, pre-exchanged with DLPC (0.2 mg/ml), was combined with small molecules overnight at 4 °C in assay buffer. SYPRO orange dye was added to the complexes the next day, at a final dilution of 1:1000. Complexes were heated at a rate of 0.5 °C/minute on a StepOne Plus thermocycler, using the ROX filter for fluorescence detection. The melting temperature (Tm, 50% unfolding) was calculated using the Bolzman equation GraphPad Prism (version 9). Assays were conducted with nine technical replicates over three experiments.

[8] = molecular target: T7, LRH-1 (Homo sapiens, UniProt O00482); experiment: Luciferase reporter assay, LRH-1, HeLa cells; type: cell-based; settings: for LRH-1 activation in luciferase reporter assay: small molecule at 0.1, 1, and 10 μM, relative to DMSO control; for specificity for LRH-1 over SF-1 in reporter assays: 0.1, 1, and 10 μM, LRH-1 vs SF-1 reporter
T7 construct: expressed in transfected cells; host or cells: HeLa
Protocol: as §1

[9] = molecular target: T8, L265M SF-1 mutant (Homo sapiens, UniProt Q13285, L265M); experiment: Luciferase reporter assay, L265M SF-1 mutant; type: cell-based; settings: 0.1, 1, and 10 µM, relative to DMSO control
T8 construct: expressed in transfected cells; host or cells: HeLa
Protocol: as §1, with “1). […]” for “1).”

[10] = molecular target: T9, CysLite SF-1 (steroidogenic factor-1 ligand binding domain, amino acids 218-461, C247S, C412S) (human, UniProt Q13285 218-461, C247S | C412S); experiment: crystal structure; cleaved SF-1 CysLite (~5 mg/ml) incubated with 4-fold molar excess of TIF2 peptide at room temperature for 2 h; hanging drop vapor diffusion at 4 °C, Na acetate pH 4.6, glycerol, PEG 4000; crystals soaked 2 days with 6N-10CA; 2.59 Å; settings: both partners purified
T9 construct: Steroidogenic factor-1 (SF-1); Expressed from the pLic-His vector; His tag cleaved with tobacco etch virus protease; In the crystal the pocket holds 6N-10CA (soaked in) and a bacterial phospholipid modelled as DPPE; also called SF-1 LBD; SF-1 CysLite; source: E. coli BL21(DE3)-pLysS, purified (HisTrap, TEV cleavage, second HisTrap, SEC)

[11] = 95% confidence intervals in brackets, read-out: EC50 (half maximal effective concentration)

T5 sequence (Q13285 218-461 T272V): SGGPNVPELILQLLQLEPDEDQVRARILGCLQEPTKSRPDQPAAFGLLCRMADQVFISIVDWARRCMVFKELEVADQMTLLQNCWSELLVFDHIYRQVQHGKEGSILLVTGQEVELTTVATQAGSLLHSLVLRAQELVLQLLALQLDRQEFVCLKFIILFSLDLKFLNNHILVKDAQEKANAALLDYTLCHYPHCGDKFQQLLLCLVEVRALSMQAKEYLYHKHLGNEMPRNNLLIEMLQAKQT
T6 sequence (Q13285 218-461): as the sequence (Q13285 218-461 T272V) above, with V55T counted along it
T3 sequence (Q13285 218-461 M268L): as the sequence (Q13285 218-461 T272V) above, with M51L, V55T counted along it
T2 sequence (Q13285 218-461 Y436F): as the sequence (Q13285 218-461 T272V) above, with V55T, Y219F counted along it
T1 sequence (Q13285 whole entry): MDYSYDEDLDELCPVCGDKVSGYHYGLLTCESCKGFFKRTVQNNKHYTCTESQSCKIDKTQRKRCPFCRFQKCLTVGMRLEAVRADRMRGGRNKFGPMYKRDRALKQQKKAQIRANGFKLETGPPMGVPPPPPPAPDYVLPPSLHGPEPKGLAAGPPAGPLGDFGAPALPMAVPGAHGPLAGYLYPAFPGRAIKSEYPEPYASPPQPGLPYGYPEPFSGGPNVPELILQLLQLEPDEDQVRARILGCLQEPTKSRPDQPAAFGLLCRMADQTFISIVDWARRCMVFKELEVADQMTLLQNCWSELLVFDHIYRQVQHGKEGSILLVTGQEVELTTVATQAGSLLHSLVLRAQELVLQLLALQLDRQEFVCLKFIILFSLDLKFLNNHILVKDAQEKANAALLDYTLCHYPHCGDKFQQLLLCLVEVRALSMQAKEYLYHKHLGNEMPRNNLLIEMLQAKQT
T7 sequence (O00482 whole entry): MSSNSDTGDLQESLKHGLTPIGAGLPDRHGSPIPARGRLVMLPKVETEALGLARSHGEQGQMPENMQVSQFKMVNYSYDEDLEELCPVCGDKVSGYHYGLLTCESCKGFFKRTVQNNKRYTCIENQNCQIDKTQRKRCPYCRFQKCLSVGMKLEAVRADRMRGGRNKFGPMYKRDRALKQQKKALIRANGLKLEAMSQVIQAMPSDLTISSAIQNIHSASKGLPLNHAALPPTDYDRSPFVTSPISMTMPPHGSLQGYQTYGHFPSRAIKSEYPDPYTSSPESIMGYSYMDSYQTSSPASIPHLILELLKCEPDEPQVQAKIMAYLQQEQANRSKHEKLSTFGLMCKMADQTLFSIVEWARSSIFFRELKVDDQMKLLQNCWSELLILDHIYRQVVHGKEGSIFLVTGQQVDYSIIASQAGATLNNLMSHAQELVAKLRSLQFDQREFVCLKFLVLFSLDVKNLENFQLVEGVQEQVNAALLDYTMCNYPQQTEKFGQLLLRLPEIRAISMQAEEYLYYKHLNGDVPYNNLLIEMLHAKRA
T4 sequence (Q13285 218-461 K440A): as the sequence (Q13285 218-461 T272V) above, with V55T, K223A counted along it
T8 sequence (Q13285 whole entry L265M): as the sequence (Q13285 whole entry) above, with L265M counted along it
T9 sequence (Q13285 218-461 C247S/C412S): as the sequence (Q13285 218-461 T272V) above, with C30S, V55T, C195S counted along it

C=C(c1ccccc1)[C@@]12CC[C@H](NS(N)(=O)=O)[C@@H]1CC(CCCCCCCCCC(=O)O)=C2c1ccccc1 (racemic) [6N-10CA]
EC50 ([1]; read-out: EC50): 100 nM
potency of 6N-10CA relative to 10CA (more potent) ([1]; SF-1 luciferase reporter): 16 fold
potency for SF-1 compared with LRH-1 ([1]; SF-1 vs LRH-1 value of ref 47): nearly two times less
luciferase signal at highest concentration [1]: drastic decrease in overall signal
maximum activation [1]: ~1.7
effect of pocket mouth mutation Y436 on binding affinity [2]: minimal impact
effect of deep pocket mutation on binding affinity [3]: decreased SF-1 binding affinity
effect of K440A mutation on binding affinity ([4]; compared to WT, FP competition): increased affinity for 6N-10CA was statistically insignificant
effect of deep pocket mutation on binding affinity [5]: decreased SF-1 binding affinity
Ki [6]: 60 nM
affinity for SF-1 compared with LRH-1 ([6]; SF-1 Ki (Fig. 3C) vs LRH-1 value of ref 47): over two orders of magnitude lower
improvement in affinity of 6N-10CA over 10CA ([6]; SF-1 binding, FP competition): ~4 fold
increase in affinity of 6N-10CA over 6N ([6]; SF-1 binding, FP competition): ~20 fold
Tm (melting temperature) [7]: 58.3 °C
positive shift in melting temperature [7]: ~6.5 °C

C=C(c1ccccc1)[C@@]12CC[C@H](NS(N)(=O)=O)[C@@H]1CC(CCCCCC)=C2c1ccccc1 (racemic) [6N]
EC50 [1, 11]: 130 nM
luciferase signal at highest concentration [1]: drastic decrease in overall signal
maximum activation [1]: ~1.4
effect of pocket mouth mutation Y436 on binding affinity [2]: minimal impact
Ki [6]: 1400 nM
Tm (melting temperature) [7]: 58.6 °C
positive shift in melting temperature [7]: ~6.5 °C

C=C(c1ccccc1)C12CCC(NC(N)=O)C1CC(CCCCCC)=C2c1ccccc1 (stereo not shown) [4N]
SF-1 activation in luciferase reporter assay [1]: without activating SF-1
LRH-1 activation in luciferase reporter assay [8]: activated LRH-1

CCCCCCCCCCCC(=O)OC[C@H](COP(=O)([O-])OCC[N+](C)(C)C)OC(=O)CCCCCCCCCCC [DLPC, 1,2-dilauroyl-sn-glycero-3-phosphocholine, reference compound]
Tm (melting temperature) [7]: 52.2 °C

C=C(c1ccccc1)[C@@]12CC[C@H](NS(N)(=O)=O)[C@@H]1CC(CCCCCCCCCC(=O)Nc1ccc3c(c1)C(=O)OC31c3ccc(O)cc3Oc3cc(O)ccc31)=C2c1ccccc1 (racemic) [6N-FAM, reference compound]
Kd ([2]; Y436F, 10 nM 6N-FAM, read-out: probe affinity determined with forward binding assays): 9.9 nM
Kd ([3]; M268L, 10 nM 6N-FAM, read-out: probe affinity determined with forward binding assays): 19.3 nM
Kd ([4]; K440A, 10 nM 6N-FAM, read-out: probe affinity determined with forward binding assays): 5.5 nM
Kd ([5]; T272V, 10 nM 6N-FAM, read-out: probe affinity determined with forward binding assays): 10.9 nM
Kd ([6]; WT SF-1 LBD, 10 nM 6N-FAM, read-out: probe affinity determined with forward binding assays): 12 nM

C=C(c1ccccc1)[C@@]12CC[C@@H](O)[C@@H]1CC(CCCCCCCCCC(=O)O)=C2c1ccccc1 (racemic) [10CA]
EC50 [1, 11]: 1600 nM
effect of pocket mouth mutation Y436 on binding affinity [2]: decreased 10CA binding affinity
effect of deep pocket mutation on binding affinity [3]: decreased SF-1 binding affinity
effect of deep pocket mutation on binding affinity [5]: decreased SF-1 binding affinity
Ki [6]: 250 nM
Tm (melting temperature) [7]: 54.5 °C
positive shift in melting temperature [7]: ~2 °C

C=C(c1ccccc1)[C@@]12CC[C@H](NC(C)=O)C1CC(CCCCCCCCCC(=O)O)=C2c1ccccc1 (mixture of isomers) [2N-10CA]
activation of L265M SF-1 mutant [9]: failed to activate
specificity for LRH-1 over SF-1 in reporter assays [8]: specificity for LRH-1 was largely preserved
LRH-1 activation in luciferase reporter assay [8]: improved agonism

C=C(c1ccccc1)C12CCC(NC(C)=O)C1CC(CCCCCC)=C2c1ccccc1 (stereo not shown) [2N]
SF-1 activation in luciferase reporter assay [1]: without activating SF-1
LRH-1 activation in luciferase reporter assay [8]: activated LRH-1

C=C(c1ccccc1)[C@@]12CC[C@H](NC(N)=O)C1CC(CCCCCCCCCC(=O)O)=C2c1ccccc1 (mixture of isomers) [4N-10CA]
specificity for LRH-1 over SF-1 in reporter assays [8]: specificity for LRH-1 was largely preserved
LRH-1 activation in luciferase reporter assay [8]: improved agonism

C=C(c1ccccc1)C12CCC(OC(N)=O)C1CC(CCCCCC)=C2c1ccccc1 (stereo not shown) [3N]
SF-1 activation in luciferase reporter assay [1]: reduced SF-1 activity

B1: TIF2 peptide (fragment of the coactivator transcriptional intermediate factor 2) (peptide)
peptide: KENALLRYLLDKDD
binding result [10]: binds
